Measurements from patent publication US20210140962A1, “COMPOUND AND METHOD OF MEASURING INTESTINAL PERMEABILITY AND LEAKY GUT” (priority 2017, published 2021).

How the values were obtained:
[1] = test system: intestinal permeability; conditions: rodent model with gradual deterioration of insulin sensitivity and eventual onset of diabetes; oral gavage; change over time (FIG. 5)
[2] = aqueous solution about 2.5 mM; comprised of materials verified as being non-toxic by the FDA; cited from earlier work

ratio of Cr to creatinine in urine samples [1]: measurable increase
Compound: O=C(O)CN(CCN(CC(=O)O)CC(=O)O)CC(=O)O.[Cr] [Cr-EDTA, chromium EDTA complex]
toxicity [2]: non-toxic
